Reference: patent US10221179B2, “Substituted pyrazoloquinazolinones and pyrroloquinazolinones as allosteric modulators of group II metabotropic glutamate receptors” (DOMAIN THERAPEUTICS, priority 2014, dated 2019)

Assays:
[1] = target: T1, human mGluR2 (hmGluR2) (Homo sapiens, UniProt Q14416); assay: Ca++ functional assay, human mGluR2 transiently over-expressed in HEK-293 cells (agonist and negative allosteric modulator modes); type: cell-based; settings: glutamate at EC80, intracellular calcium (Fluo4AM), read-out: hmGluR2 negative allosteric modulator activity IC50
T1 construct: expressed in transfected cells; host or cells: HEK-293 cells, transient co-transfection by electroporation
T1 sequence (Q14416 19-872): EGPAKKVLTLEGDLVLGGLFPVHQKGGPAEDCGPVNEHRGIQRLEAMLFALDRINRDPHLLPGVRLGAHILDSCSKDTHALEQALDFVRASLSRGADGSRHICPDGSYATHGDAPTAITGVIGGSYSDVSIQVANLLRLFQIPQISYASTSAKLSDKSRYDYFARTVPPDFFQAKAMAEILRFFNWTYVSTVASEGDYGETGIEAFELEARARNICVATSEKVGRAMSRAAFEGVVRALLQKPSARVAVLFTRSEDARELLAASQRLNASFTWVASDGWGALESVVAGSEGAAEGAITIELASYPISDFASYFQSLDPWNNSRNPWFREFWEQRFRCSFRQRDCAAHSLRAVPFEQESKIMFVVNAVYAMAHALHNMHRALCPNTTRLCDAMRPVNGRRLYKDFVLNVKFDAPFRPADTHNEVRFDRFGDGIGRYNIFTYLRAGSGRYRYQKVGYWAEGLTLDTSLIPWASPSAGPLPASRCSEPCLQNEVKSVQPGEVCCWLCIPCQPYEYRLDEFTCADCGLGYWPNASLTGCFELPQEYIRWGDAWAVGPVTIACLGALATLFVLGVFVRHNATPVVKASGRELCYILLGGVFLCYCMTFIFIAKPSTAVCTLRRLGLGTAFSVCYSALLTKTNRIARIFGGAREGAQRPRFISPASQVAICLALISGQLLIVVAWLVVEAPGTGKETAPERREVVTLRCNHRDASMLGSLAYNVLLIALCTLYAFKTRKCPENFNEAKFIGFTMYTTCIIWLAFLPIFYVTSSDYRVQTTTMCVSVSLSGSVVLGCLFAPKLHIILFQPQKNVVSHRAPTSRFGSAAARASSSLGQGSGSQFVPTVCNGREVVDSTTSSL
Method: Example 127: Human mGluR2 and mGluR3 Evaluation Using Ca^++ Functional Assay
Examples of the present invention were tested successively for their agonist and negative allosteric modulator activities on human mGluR2 (hmGluR2) and mGluR3 (hmGluR3) transiently over-expressed in HEK-293 cells.
Cell Culture and Transfection
HEK-293 cells are maintained in Modified Eagle's Medium supplemented with 10% Foetal Calf Serum, 1% Penicillin/Streptomycin and 1% non-essential amino acids at 37° C./5% CO2.
Cells are co-transfected by electroporation with four DNA plasmids encoding hmGluR2 or hmGluR3, a chimeric G protein allowing redirection of the activation signal to intracellular calcium pathway (Brabet I et al., Neuropharmacology 37(8), 1043-51, 1998), and two glutamate transporters minimizing receptor desensitization by endogenous glutamate. After transfection, cells are cultured for 24 h at 37° C./5% CO2.
Calcium Assay IC50 Determination
Receptor activity is detected by changes in intracellular calcium measured using the fluorescent Ca^2+ sensitive dye, Fluo4AM (Molecular Probes).
On the day of the assay, culture medium is aspirated and replaced during 3 hours by medium without serum supplemented with 1% Glutamax, 1% Penicillin/Streptomycin and 1% non-essential amino acids. Then, cells are washed with freshly prepared buffer B (HBSS 1×(PAA), Hepes 20 mM, MgSO4-7H2O 1 mM, Na2CO3 3.3 mM, CaCl2-2H2O 1.3 mM, 0.1% BSA, Probenecid 2.5 mM) and loaded at 37° C. in 5% CO2 for 1.5 hours with buffer B containing 1 μM Fluo4AM, 0.1 mg/mL Pluronic Acid, 7 μg/mL Glutamate Pyruvate Transaminase and 2 mM sodium pyruvate. Afterwards cells are washed twice with buffer B. Then cells are detached using StemPro Accutase (Fischer Scientific), resuspended in buffer B and seeded in 384 well plate at a density of 30,000 cells per well. Addition of compounds and intracellular Ca^2+ measurements (excitation 485 nm, emission 525 nm) are performed by the fluorescence microplate reader FLIPRTetra (Molecular Devices).
Agonist and negative allosteric modulator activities of compounds are consecutively evaluated on the same cell plate. […] Then, cells are stimulated by an EC80 glutamate concentration and fluorescence is recorded for additional 3 minutes. EC80 glutamate concentration is the concentration giving 80% of the maximal glutamate response. Agonist or negative allosteric modulator activity(ies) are evaluated in comparison to basal signals evoked by buffer B or EC80 glutamate alone, respectively.
For IC50 determination, a dose-response test is performed using 20 concentrations (ranging over 6 logs) of each compound. Dose-response curves are fitted using the sigmoidal dose-response (variable slope) analysis in GraphPad Prism program (Graph Pad Inc) and IC50 of negative allosteric modulator activity is calculated. Dose-response experiments are performed in duplicate, two times independently.

Row | SMILES | IC50 [1] [nM] | melting point [°C]
1 | Cn1c(=O)c2ccc(F)cc2n2nc(-c3ccnc(Cl)c3)cc12 [Example 117, 2-(2-Chloro-pyridin-4-yl)-8-fluoro-4-methyl-4H-pyrazolo[1,5-a]quinazolin-5-one] | < 1000 | –
2 | CC1CN(c2ccc3c(=O)n(C)c4cc(-c5ccnc(C(F)(F)F)c5)nn4c3c2)CC(C)O1 (stereo not drawn) [Example 125, 8-(2,6-Dimethyl-morpholin-4-yl)-4-methyl-2-(2-trifluoromethyl-pyridin-4-yl)-4H-pyrazolo[1,5-a]quinazolin-5-one] | < 1000 | > 250
3 | COc1cc2c(=O)n(C)c3cc(-c4ccnc(C(F)(F)F)c4)nn3c2cc1OC [Example 87, 7,8-Dimethoxy-4-methyl-2-(2-trifluoromethyl-pyridin-4-yl)-4H-pyrazolo[1,5-a]quinazolin-5-one] | < 1000 | > 250
4 | Cn1c(=O)c2ccc(N3CC(O)C3)cc2n2nc(-c3ccnc(C(F)(F)F)c3)cc12 [Example 68, 8-(3-Hydroxy-azetidin-1-yl)-4-methyl-2-(2-trifluoromethyl-pyridin-4-yl)-4H-pyrazolo[1,5-a]quinazolin-5-one] | < 1000 | > 250
5 | COc1cc(-c2cc3n(C)c(=O)c4ccccc4n3n2)ccn1 [Example 14, 2-(2-Methoxy-pyridin-4-yl)-4-methyl-4H-pyrazolo[1,5-a]quinazolin-5-one] | < 1000 | > 250
6 | CCN(CC)C(=O)c1ccc2c(=O)n(C)c3cc(-c4ccnc(C(F)(F)F)c4)nn3c2c1 [Example 80, 4-Methyl-5-oxo-2-(2-trifluoromethyl-pyridin-4-yl)-4,5-dihydro-pyrazolo[1,5-a]quinazoline-8-carboxylic Acid Diethylamide] | < 1000 | 240 to 245
7 | Cn1c(=O)c2cc(Cl)ccc2n2nc(-c3ccnc(C4CC4)c3)cc12 [Example 96] | < 1000 | –
8 | Cn1c(=O)c2ccc(N3CCC(O)CC3)cc2n2nc(-c3ccnc(C4CC4)c3)cc12 [Example 113, 2-(2-Cyclopropyl-pyridin-4-yl)-8-(4-hydroxy-piperidin-1-yl)-4-methyl-4H-pyrazolo[1,5-a]quinazolin-5-one] | < 1000 | 221 to 233
9 | CCOc1ccc2c(c1)c(=O)n(C)c1cc(-c3ccnc(C(F)(F)F)c3)nn21 [Example 49, 7-Ethoxy-4-methyl-2-(2-trifluoromethyl-pyridin-4-yl)-4H-pyrazolo[1,5-a]quinazolin-5-one] | < 1000 | 152 to 158
10 | Cn1c(=O)c2cc(F)c(NCCC#N)cc2n2nc(-c3ccnc(C(F)(F)F)c3)cc12 [Example 121, 3-[7-Fluoro-4-methyl-5-oxo-2-(2-trifluoromethyl-pyridin-4-yl)-4,5-dihydro-pyrazolo[1,5-a]quinazolin-8-ylamino]-propionitrile] | < 1000 | > 250
11 | Cn1c(=O)c2ccccc2n2nc(-c3ccnc(OCC(F)(F)C(F)(F)F)c3)cc12 [Example 24, 4-Methyl-2-[2-(2,2,3,3,3-pentafluoro-propoxy)-pyridin-4-yl]-4H-pyrazolo[1,5-a]quinazolin-5-one] | < 1000 | 150 to 155
12 | Cl.Cn1c(=O)c2ccccc2n2nc(-c3ccnc(C4CC4)c3)cc12 [Example 5, 2-(2-Cyclopropyl-pyridin-4-yl)-4-methyl-4H-pyrazolo[1,5-a]quinazolin-5-one] | < 1000 | 248 to 251
13 | Cn1c(=O)c2ccccc2n2nc(-c3ccnc(C(C)(F)F)c3)cc12 [Example 32, 2-[2-(1,1-Difluoro-ethyl)-pyridin-4-yl]-4-methyl-4H-pyrazolo[1,5-a]quinazolin-5-one] | < 1000 | 196 to 207
14 | Cn1c(=O)c2cc(Br)ccc2n2nc(-c3ccnc(C(F)(F)F)c3)cc12 [Example 39] | < 1000 | –
15 | Cn1c(=O)c2ccc(Br)cc2n2nc(-c3ccnc(C(F)(F)F)c3)cc12 [Example 58, 8-Bromo-4-methyl-2-(2-trifluoromethyl-pyridin-4-yl)-4H-pyrazolo[1,5-a]quinazolin-5-one] | < 1000 | –
16 | Cn1c(=O)c2cc(Cl)ccc2n2nc(-c3ccnc(C(F)(F)F)c3)cc12 [Example 35] | < 1000 | –
17 | CN(C)C(=O)c1ccc2c(=O)n(C)c3cc(-c4ccnc(C(F)(F)F)c4)nn3c2c1 [Example 79, 4-Methyl-5-oxo-2-(2-trifluoromethyl-pyridin-4-yl)-4,5-dihydro-pyrazolo[1,5-a]quinazoline-8-carboxylic Acid Dimethylamide] | < 1000 | –
18 | COc1ccc2c(c1)c(=O)n(C)c1cc(-c3ccnc(Cl)c3)nn21 [Example 99, 2-(2-Chloro-pyridin-4-yl)-7-methoxy-4-methyl-4H-pyrazolo[1,5-a]quinazolin-5-one] | < 1000 | –
19 | C=C(C)c1cc(-c2cc3n(C)c(=O)c4ccccc4n3n2)ccn1 [Example 10, 2-(2-Isopropenyl-pyridin-4-yl)-4-methyl-4H-pyrazolo[1,5-a]quinazolin-5-one] | < 1000 | –
20 | Cc1cc(-c2cc3n(C)c(=O)c4ccccc4n3n2)cc(C2CC2)n1 [Example 106, 2-(2-Cyclopropyl-6-methyl-pyridin-4-yl)-4-methyl-4H-pyrazolo[1,5-a]quinazolin-5-one] | < 1000 | –
21 | Cn1c(=O)c2cc(Cl)ccc2n2nc(-c3ccnc(Cl)c3)cc12 [Example 95, 7-Chloro-2-(2-chloro-pyridin-4-yl)-4-methyl-4H-pyrazolo[1,5-a]quinazolin-5-one] | < 1000 | –
22 | Cn1c(=O)c2cc(Cl)ccc2n2nc(-c3ccnc(OCC(F)(F)F)c3)cc12 [Example 98, 7-Chloro-4-methyl-2-[2-(2,2,2-trifluoro-ethoxy)-pyridin-4-yl]-4H-pyrazolo[1,5-a]quinazolin-5-one] | < 1000 | –
23 | Cn1c(=O)c2ccc(Cl)cc2n2nc(-c3ccnc(C(F)(F)F)c3)cc12 [Example 56, 8-Chloro-4-methyl-2-(2-trifluoromethyl-pyridin-4-yl)-4H-pyrazolo[1,5-a]quinazolin-5-one] | < 1000 | –
24 | Cn1c(=O)c2ccccc2n2nc(-c3ccncc3Cl)cc12 [Example 108, 2-(3-Chloro-pyridin-4-yl)-4-methyl-4H-pyrazolo[1,5-a]quinazolin-5-one] | < 1000 | –
25 | CNc1cc2c(=O)n(C)c3cc(-c4ccnc(C(F)(F)F)c4)nn3c2cc1OC [Example 94, 8-Methoxy-4-methyl-7-methylamino-2-(2-trifluoromethyl-pyridin-4-yl)-4H-pyrazolo[1,5-a]quinazolin-5-one] | < 1000 | –
26 | COc1ccc2c(c1)c(=O)n(C)c1cc(-c3ccnc(C4CC4)c3)nn21 [Example 100, 2-(2-Cyclopropyl-pyridin-4-yl)-7-methoxy-4-methyl-4H-pyrazolo[1,5-a]quinazolin-5-one] | < 1000 | –
27 | Cc1cc(-c2cc3n(C)c(=O)c4ccccc4n3n2)cc(Cl)n1 [Example 105, 2-(2-Chloro-6-methyl-pyridin-4-yl)-4-methyl-4H-pyrazolo[1,5-a]quinazolin-5-one] | < 1000 | –
28 | Cc1cc(-c2cc3n(C)c(=O)c4ccccc4n3n2)ccn1 [Example 2, 4-methyl 2-(2-methyl-pyridin-4-yl)-4H-pyrazolo[1,5-a]quinazolin-5-one] | < 1000 | –
